One experiment concerns MYB mRNA. In words: RT-qPCR splicing assay, MYB canonical junction (CJ) and alternative junction (AJ) mRNA. The format is cell-based, human. The following applies: for AC50: increase in MYB alternative junction (AJ) mRNA, read-out: MYB AJ AC50. A digest of the protocol:
(§1)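 Following a 24-hour incubation of A673 or K562 cells with serially diluted compound (3-fold steps, highest final 10 uM), the lysates undergo cDNA synthesis plus qPCR. Canonical and alternative junctions are each quantified against PPIA, GAPDH or GUSB.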

Experiment [1] deals with K562 (human chronic myelogenous leukemia) cells. In words: Cell Titer Glo 2.0 cell viability assay. The format is cell-based. The following applies: Homo sapiens, K562, 72 h, K562 cells, 72 hours, Cell Titer Glo 2.0; read-out: K562 GI50. Background: Cellular ATP, detected with luciferase, serves as a proxy for viable cell number.
Another experiment deals with Target C. As to the kind of experiment: RT-qPCR splicing assay panel, Target C canonical junction (CJ) mRNA. Format: cell-based, human. The settings on record: Table 5 panel, canonical junction qPCR, compound concentration having 50% response in CJ decrease, read-out: Target C IC50 (decrease in CJ mRNA levels). A digest of the protocol:
(§2)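 Cells are plated (A673 allowed 24 h to adhere), dosed with an 11-point 3-fold series topping at 10 uM final, and incubated 24 h at 37 °C. Lysis is followed by cDNA synthesis and qPCR of the CJ transcript, normalized to a housekeeping gene.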
On the technique in general: Real-time PCR tracks product formation cycle by cycle.

In the next experiment the test system is SMN2 mRNA. In words: RT-qPCR splicing assay, SMN2 canonical junction (CJ) mRNA. The format is cell-based, human. The settings on record: Table 5 panel, canonical junction qPCR, compound concentration having 50% response in CJ decrease, read-out: SMN2 IC50 (decrease in CJ mRNA levels). A digest of the protocol:
as §2

The test system of the next experiment is HTT mRNA. In words: RT-qPCR splicing assay, HTT canonical junction (CJ) and alternative junction (AJ) mRNA. The format is cell-based, human. The settings on record: for AC50: increase in HTT alternative junction (AJ) mRNA, read-out: HTT AJ AC50. A digest of the protocol:
as §1

[2] abbreviates: Homo sapiens, Table 5 panel, canonical junction qPCR, compound concentration having 50% response in CJ decrease, read-out: MYB IC50 (decrease in CJ mRNA levels).
The mark [3] stands for this setting: Homo sapiens, decrease in MYB canonical junction (CJ) mRNA, RT-qPCR, read-out: MYB CJ IC50.
Where [4] appears, read: Homo sapiens, decrease in HTT canonical junction (CJ) mRNA, RT-qPCR, read-out: HTT CJ IC50.
Setting [5] is: Homo sapiens, Table 5 panel, canonical junction qPCR, compound concentration having 50% response in CJ decrease, read-out: HTT IC50 (decrease in CJ mRNA levels).

Read-outs that look alike come from different tables or passages of the source. A value given as a limit tells only on which side of the number the result lay.

Take `Cn1cc2ccc(-c3ccc4c(=O)n(C5CCNCC5)ncc4c3)cc2n1` [Compound 263]: the half-maximal inhibitory concentration (IC50) with MYB mRNA (setting [2]), in the experiment with MYB mRNA (setting [3]), in the experiment with Target C (Homo sapiens), in the experiment with SMN2 mRNA (Homo sapiens), in the experiment on HTT mRNA (setting [4]) and with HTT mRNA (setting [5]) was greater than 10 µM each time. Also, the AC50 with MYB mRNA (Homo sapiens, RT-qPCR) is greater than 10 µM; in the experiment on HTT mRNA (Homo sapiens, RT-qPCR), greater than 10 µM. Besides, the GI50 in experiment [1] lay within 1 to 10 µM.

`Cc1cn2nc(-c3ccc4c(=O)n(C5CCNC5)ncc4c3)cc(C)c2n1` (stereo not drawn) [Compound 264]: the IC50 with MYB mRNA (setting [2]) was 1 to 10 µM; in the experiment with MYB mRNA (setting [3]), 1 to 10 µM; in the experiment with Target C (Homo sapiens), greater than 10 µM; with SMN2 mRNA (Homo sapiens) it was 0.1 to 1 µM; with HTT mRNA (setting [4]), 1 to 10 µM; in the experiment with HTT mRNA (setting [5]), 1 to 10 µM. Moreover, the AC50 lay within 1 to 10 µM in the experiment with MYB mRNA (Homo sapiens, RT-qPCR) and 1 to 10 µM with HTT mRNA (Homo sapiens, RT-qPCR). For the same compound, the GI50 in experiment [1] was in the range of 1 to 10 µM.

In the case of `Cc1cn2nc(-c3ccc4c(=O)n(C5CCN(C)CC5)ncc4c3)cc(C)c2n1` [Compound 265], the IC50 was 0.1 to 1 µM in the experiment on MYB mRNA (setting [2]); less than 0.1 µM in the experiment on MYB mRNA (setting [3]); 0.1 to 1 µM with Target C (Homo sapiens); less than 0.1 µM in the experiment on SMN2 mRNA (Homo sapiens); less than 0.1 µM in the experiment with HTT mRNA (setting [4]); less than 0.1 µM in the experiment on HTT mRNA (setting [5]). Also, the AC50 in the experiment on MYB mRNA (Homo sapiens, RT-qPCR) was 0.1 to 1 µM; in the experiment on HTT mRNA (Homo sapiens, RT-qPCR), less than 0.1 µM. Moreover, the concentration for 50% growth inhibition (GI50) in experiment [1] was 0.1 to 1 µM.

As to `Cc1cn2nc(-c3ccc4c(=O)n([C@@H]5CCNC6(CC6)C5)cnc4c3)cc(C)c2n1` [Compound 444], the IC50 in the experiment on MYB mRNA (Table 5 panel, canonical junction qPCR, compound concentration having 50% response in CJ decrease, read-out: MYB IC50 (decrease in CJ mRNA levels)) is less than 0.1 µM; in the experiment with MYB mRNA (decrease in MYB canonical junction (CJ) mRNA, RT-qPCR, read-out: MYB CJ IC50) it was less than 0.1 µM; in the experiment with Target C, 0.1 to 1 µM; in the experiment with SMN2 mRNA, less than 0.1 µM; in the experiment on HTT mRNA (Table 5 panel, canonical junction qPCR, compound concentration having 50% response in CJ decrease, read-out: HTT IC50 (decrease in CJ mRNA levels)), 0.1 to 1 µM; in the experiment on HTT mRNA (decrease in HTT canonical junction (CJ) mRNA, RT-qPCR, read-out: HTT CJ IC50) it was 0.1 to 1 µM. For the same compound, the half-maximal activity concentration (AC50) in the experiment on MYB mRNA (RT-qPCR) is less than 0.1 µM; in the experiment on HTT mRNA (RT-qPCR) it was 0.1 to 1 µM. The GI50 in experiment [1] was in the range of 0.1 to 1 µM.

The IC50 is the point on the concentration scale where inhibition reaches its midpoint. What is called AC50 is the concentration at which the activity in the assay is half-maximal. One may read the GI50 as the concentration that inhibits growth by half.

The record behind these values is US20250332173A1, “COMPOUNDS AND METHODS FOR MODULATING NUCLEIC ACID SPLICING” (REMIX THERAPEUTICS INC., priority 2021, published 2025).
